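48-hour exposure; five concentrations; linearly interpolated endpoints. The concentration for 50% growth inhibition is given as GI50. TGI denotes the concentration required for complete inhibition of growth.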
Tests used:
Test in all cases: NCI anticancer screen, dose series, 48 h
[1] = system: 786-0 renal
[2] = system: ACHN renal
[3] = system: CCRF-CEM leukemia
[4] = system: DU-145 prostate
[5] = system: HL-60(TB) leukemia
[6] = system: HOP-92 NSCLC
[7] = system: HS 578T breast
[8] = system: K-562 leukemia
[9] = system: MOLT-4 leukemia
[10] = system: NCI-H23 lung
[11] = system: PC-3 prostate
[12] = system: RPMI-8226 leukemia
[13] = system: SW-620 colon
[14] = system: UO-31 renal

Question: How did the GI50 [1] turn out when `c1ccc(-c2c(-c3ccccc3)[n+](Cc3ccc4ccccc4c3)c(-c3ccccc3)n2Cc2ccc3ccccc3c2)cc1` was run?
Answer: Its GI50 is 352 nM.

Question: What about the TGI [1] of the same molecule?
Answer: The TGI was 1860 nM.

Question: What about the GI50 [2] of the same molecule?
Answer: Its GI50 is 401 nM.

Question: And the TGI [2]?
Answer: The TGI was 1390 nM.

Question: And the GI50 [3]?
Answer: The GI50 was 241 nM.

Question: And the TGI [3]?
Answer: Its TGI is 1240 nM.

Question: What about the GI50 [4] of the same molecule?
Answer: Its GI50 is 365 nM.

Question: And the TGI [4]?
Answer: The TGI was 1430 nM.

Question: And the GI50 [5]?
Answer: Its GI50 is 150 nM.

Question: And the TGI [5]?
Answer: The TGI was 400 nM.

Question: And the GI50 [6]?
Answer: The GI50 was 158 nM.

Question: What about the TGI [6] of the same molecule?
Answer: Its TGI is 592 nM.

Question: And the GI50 [7]?
Answer: Its GI50 is 370 nM.

Question: What about the TGI [7] of the same molecule?
Answer: Its TGI is 1830 nM.

Question: What about the GI50 [8] of the same molecule?
Answer: The GI50 was 181 nM.

Question: And the TGI [8]?
Answer: The TGI was 1230 nM.

Question: What about the GI50 [9] of the same molecule?
Answer: Its GI50 is 285 nM.

Question: What about the TGI [9] of the same molecule?
Answer: Its TGI is 1130 nM.

Question: And the GI50 [10]?
Answer: Its GI50 is 224 nM.

Question: And the TGI [10]?
Answer: The TGI was 727 nM.

Question: And the GI50 [11]?
Answer: The GI50 was 200 nM.

Question: And the TGI [11]?
Answer: The TGI was 862 nM.

Question: And the GI50 [12]?
Answer: Its GI50 is 56.8 nM.

Question: What about the TGI [12] of the same molecule?
Answer: The TGI was 505 nM.

Question: And the GI50 [13]?
Answer: Its GI50 is 326 nM.

Question: What about the TGI [13] of the same molecule?
Answer: The TGI was 1380 nM.

Question: What about the GI50 [14] of the same molecule?
Answer: The GI50 was 672 nM.

Question: What about the TGI [14] of the same molecule?
Answer: The TGI was 2940 nM.
